For one test, the target named is T1, Human MARK4 (Homo sapiens, UniProt Q96L34).
T1 construct: made in house; host or cells: HEK293 cells
T1 sequence (Q96L34 1-752): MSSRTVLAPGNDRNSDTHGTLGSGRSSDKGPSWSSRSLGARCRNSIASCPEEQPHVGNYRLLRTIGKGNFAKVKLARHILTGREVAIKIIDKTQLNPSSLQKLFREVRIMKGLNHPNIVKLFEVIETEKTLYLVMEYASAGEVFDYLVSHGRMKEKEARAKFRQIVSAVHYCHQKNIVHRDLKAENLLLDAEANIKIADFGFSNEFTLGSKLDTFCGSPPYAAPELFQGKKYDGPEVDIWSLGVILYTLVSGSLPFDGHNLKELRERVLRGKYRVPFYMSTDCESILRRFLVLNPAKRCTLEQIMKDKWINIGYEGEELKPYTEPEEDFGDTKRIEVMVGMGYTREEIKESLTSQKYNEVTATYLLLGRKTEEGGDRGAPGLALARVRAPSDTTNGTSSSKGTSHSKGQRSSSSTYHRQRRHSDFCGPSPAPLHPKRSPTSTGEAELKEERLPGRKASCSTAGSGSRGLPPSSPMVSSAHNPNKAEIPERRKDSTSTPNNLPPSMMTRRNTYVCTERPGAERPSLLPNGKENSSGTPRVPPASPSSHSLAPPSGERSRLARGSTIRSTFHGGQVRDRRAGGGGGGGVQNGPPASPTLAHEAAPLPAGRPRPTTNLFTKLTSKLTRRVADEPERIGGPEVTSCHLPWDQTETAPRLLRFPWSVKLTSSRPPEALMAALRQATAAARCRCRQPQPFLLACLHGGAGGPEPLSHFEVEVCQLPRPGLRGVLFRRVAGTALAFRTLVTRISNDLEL
Description: In vitro kinase assay of MARK4 phosphorylating tau (Western blot). Format: biochemical. The following applies: human MARK4 and tau affinity-purified from HEK293 cells, FIG. 7. From the text: Both human MARK4 and tau proteins were expressed in HEK293 cells and affinity-purified by immunoprecipitation. After in vitro kinase reaction in the presence or absence of the peptides, the reaction mixtures were separated on SDS-PAGE to separate the proteins, and the levels of total tau and phospho-tau generated by MARK4 were detected by Western blot analysis. The TAT peptide was used as a negative control. Note the inhibition of MARK4-mediated tau phosphorylation by both TAT-MKI and MKI-TAT.
We next tested the ability of the TAT-MKI and MKI-TAT fusions to inhibit the activity of MARK4 kinase in phosphorylating the tau protein (FIG. 7). Human MARK4 and tau proteins were expressed in HEK293 cells and affinity-purified by immunoprecipitation. In vitro kinase reactions were performed in the presence or absence of the TAT-MKI and MKI-TAT fusion peptides and the levels of total tau and phospho-tau generated by MARK4 were detected by Western blot analysis. The TAT peptide was used as a negative control. Both the TAT-MKI and MKI-TAT fusion peptides inhibited MARK4-mediated tau phosphorylation in vitro.

A further test has as its system 5×FAD mouse. Description: Activity Chamber assay in 5×FAD Alzheimer's disease mouse model. In kind it is in vivo. The following applies: 5×FAD mice, daily IP for 5 days, FIGS. 11A-11H. From the text:
The 5×FAD mouse, a well-accepted transgenic model of Alzheimer's disease, was used to test the therapeutic efficacy of MKI-TAT in vivo. The 5×FAD model mouse overexpresses APP with the K670N/M671L (Swedish mutation), I716V (Florida mutation), and V717I (London mutation), and PS1 with the M146L and L286V mutations. […] These defects were rescued by the daily delivery of MKI-TAT through IP for 5 days. At the end of the 5 day treatment, the wild type animals treated with vehicle, and 5×FAD mice treated with vehicle or MKI-TAT were subjected to the Activity Chamber assay. Total ambulatory count (FIG. 11A), total stereotypic count (FIG. 11B), total vertical count (FIG. 11C), total session time (FIG. 11D), total ambulatory time (FIG. 11E), total stereotypic time (FIG. 11F), total vertical time (FIG. 11G), and total zone entry (FIG. 11H) were evaluated.
Activity Chamber assays were performed to evaluate the effects of MKI-TAT in rescuing motor behavioral defects in an Alzheimer's disease mouse model. The 5×FAD mouse, a well-accepted transgenic model of Alzheimer's disease, was used to test the therapeutic efficacy of MKI-TAT in vivo. The 5×FAD model mouse overexpresses APP with the K670N/M671L (Swedish mutation), I716V (Florida mutation), and V717I (London mutation), and PS1 with the M146L and L286V mutations. […]

Test [1] concerns MARK4-mediated tau phosphorylation. Briefly: Tau phosphorylation in brain of mouse PS19 transgenic tauopathy model (P301S mutant human tau). In kind it is in vivo. The following applies: PS19 mice, IP 40 mg/kg/day for 5 days, FIG. 10. As for the experimental part:
Three PS19 transgenic mice (ID number: 9, 10, 11) were subjected to daily IP injection with MKI-TAT peptide (dissolved in 100% DMSO, 40 mg/kg/day) for 5 days. At the end of 5-day injection, the animals were anesthetized with 4% isoflurine and decapitated. The brain tissues were collected immediately, flash-frozen in liquid nitrogen and stored at −80° C. For analysis of effect of MKI-TAT on tau phosphorylation, brain tissues were homogenized in lysis buffer, separated on SDS-PAGE, and probed with the indicated antibodies.
Three PS19 transgenic mice (ID number: 9, 10, 11) were subjected to daily intraperitoneal injection with MKI-TAT peptide (dissolved in 100% DMSO, 40 mg/kg/day) for 5 days. At the end of the 5-day injection period, the animals were anesthetized with 4% isoflurine and decapitated. The brain tissues were collected immediately, flash-frozen in liquid nitrogen, and stored at −80° C. For analysis of the effects of MKI-TAT on tau phosphorylation, brain tissues were homogenized in lysis buffer, separated on SDS-PAGE, and probed with antibodies against pS262-tau, PHF-1, tau, and actin.

Where a SMILES comes first, the peptide text is derived from it.

This is an account of results in patent US20160030510A1, “METHODS OF TREATING ALZHEIMER'S DISEASE AND OTHER TAUOPATHIES WITH INHIBITORS OF MICROTUBULE AFFINITY REGULATING KINASE” (The Board of Trustees of the Leland Stanford Junior …, priority 2012, published 2016).

Consider `CC(=O)NCC(=O)N[C@@H](Cc1ccccc1)C(=O)N1CCC[C@H]1C(=O)N[C@@H](CC(C)C)C(=O)N[C@@H](CCCCN)C(=O)N[C@@H](CCCNC(=N)N)C(=O)N[C@@H](Cc1c[nH]cn1)C(=O)N[C@@H](CC(=O)O)C(=O)NCC(=O)N[C@H](C(=O)N[C@@H](CC(=O)O)C(=O)N[C@@H](CC(=O)O)C(=O)N[C@@H](CC(C)C)C(=O)N[C@@H](CO)C(=O)N[C@@H](CCCCN)C(=O)N[C@H](C(=O)NCC(=O)NCC(=O)N[C@@H](Cc1ccc(O)cc1)C(=O)NCC(=O)N[C@@H](CCCNC(=N)N)C(=O)N[C@@H](CCCCN)C(=O)N[C@@H](CCCCN)C(=O)N[C@@H](CCCNC(=N)N)C(=O)N[C@@H](CCCNC(=N)N)C(=O)N[C@@H](CCC(N)=O)C(=O)N[C@@H](CCCNC(=N)N)C(=O)N[C@@H](CCCNC(=N)N)C(=O)N[C@@H](CCCNC(=N)N)C(N)=O)C(C)C)C(C)C` [MKI-TAT] (Ac-GFPLKRHDGVDDLSKVGGYGRKKRRQRRR-NH2), for which the “MARK4-mediated tau phosphorylation in vitro” value on Human MARK4 is listed as “inhibited”. Also, in the test on 5×FAD mouse, the “motor behavioral defects (time in zones, average velocity, rearing time, session time, zone entry)” value is “rescued”. Also, in test [1], the “Phospho-tau recognized by the PHF-1 antibody in brain” value was “reduced”, the “level of MARK4-mediated tau phosphorylation recognized by the pS262-tau antibody in brain” value is on record as “significantly reduced” and the “total tau level in brain” value is recorded as “largely unchanged”.
